Data published in patent US10383960B2, “Small molecule imaging of fungi by positron emission tomography scanning” (The United States of America, as represented by the …, priority 2013, dated 2019).

Tested on: Aspergillus
From the text: Compounds such as calcofluor can be used for visualizing a broad range of medically relevant fungi under the microscope, due to their specific nature of binding, high level fluorescence (detectable under the microscope) and low binding to patient tissue. Calcofluor is a fairly non-toxic compound that is used to dye clothes, due to its high affinity for cellulose-containing cotton fibers. It has also been used to follow ground water migration due to its fluorescent properties and low toxicity.

With `O=S(=O)([O-])c1cc(Nc2nc(Nc3ccccc3)nc(N(CCO)CCO)n2)ccc1C=Cc1ccc(Nc2nc(Nc3ccccc3)nc(N(CCO)CCO)n2)cc1S(=O)(=O)[O-].[Na+].[Na+]` [calcofluor] the “recovery of injected compound in lung tissue” value (in vivo) was “could be recovered in harvested lung tissue” and the “fluorescent staining of fungal hyphae in lung tissue” value (microscope, lung tissue removed from subject infected with Aspergillus) was “demonstrated fluorescent fungal hyphal forms under the microscope”.
